Data set [1] can be described thus: Hygroscopicity by DVS at 25° C. It is filed as physicochemical. Particulars: DVS 25° C. The protocol: Hygroscopicity of Form A and Form N was investigated by DVS at 25° C. […] Form A converted to Form K after the DVS test. Form K is a metastable hydrate. It reverted back to Form A after exposure to ambient condition.
Hygroscopicity of the free base Pattern A* and the urea cocrystal Form P were evaluated by DVS at 25° C.

Data set [2] is described as follows: Compression and ball-milling experiments. Particulars: for behavior under ball milling: ball milling for 5 min; for behavior under compression: 2 to 10 MPa. It is filed as physicochemical. The protocol: Feasibility of formulation processes was evaluated with compression and ball-milling experiments. […] However, the hydrate Form N is sensitive to pressure.

A short description of data set [3]: Bulk stability study (1 week stress conditions; drying). Particulars: for physical and chemical stability: 25° C./92% RH open vial, 40° C./75% RH open vial or 60° C. closed vial, 1 week.
Data set [4] can be described thus: Variable humidity XRPD (VH-XRPD) experiments. Type of data set: physicochemical. Particulars: listed as Pattern N. The protocol: Based on DVS results, variable humidity XRPD was conducted for Pattern A at different humidity conditions, including 40%, 70%, 90%, 70%, 40%, 20%, 0%, 40% RH conditions.
Based on DVS results, variable humidity XRPD was conducted for Pattern N, at different humidity conditions, including 40%, 70%, 90%, 70%, 40%, 20%, 0%, 40% RH conditions.

Data set [5] in a line: Competitive equilibration experiment at 25° C. It is filed as physicochemical. To be noted: 7 days. The protocol:
Competitive equilibration experiments were conducted at 25° C. to investigate the thermodynamically stable anhydrate. 5 mg of Pattern G, and 5 mg of Pattern H, were added to about 200 μL of saturated solution in selected solvents. Obtained suspension was stirred at 25° C. for 7 days. Obtained suspensions were centrifuged and obtained solids were analyzed by XRPD immediately.

The nature of data set [6]: Mouse Hepatocyte Stability Assay. Type of data set: in vitro ADME. Particulars: CD-1, cryopreserved hepatocytes. The protocol:
The metabolic stability of Compound 1 was evaluated using cryopreserved hepatocytes from mice, rats, dogs, cynomolgus monkeys, and humans.
50 μL of 1 mM intermediate solutions for each test compound was prepared by adding 5 μL of 10 mM stock solution to 45 μL of a 1:1 mixture of water and acetonitrile. A 2 μM working stocks for each test compound were prepared in incubation media, InvitroGRO™ KHB (Bio IVT, Westbury, NY, USA), by adding 2 μL of 1 mM intermediate stock to 998 μL of incubation media.
To thaw the hepatocytes, InvitroGRO™ HT thawing medium (BioIVT, Westbury, NY, USA) was prewarmed to 37° C., and 48 mL of warmed thawing medium was transferred to a sterile 50 mL conical tube. The hepatocyte vial was removed from the liquid nitrogen Dewar, and gently thawed in a water bath at 37° C. for 1-2 minutes, then the contents of the vial were emptied into a conical tube with prewarmed InvitroGRO HT medium. 1 mL of prewarmed InvitroGRO HT medium was added to each emptied hepatocyte vial to resuspend any remaining cells, and the contents were pipetted into the hepatocyte suspension. The tube containing the hepatocyte suspension was centrifuged at 50*g for 5 minutes. The supernatant was removed carefully, and the remaining pellet was resuspended by adding 1 mL of incubation media, InvitroGRO KHB, and gently shaking until there were no clumps.
Cell viability was determined using the trypan blue method. 25 μL of hepatocyte cell suspension was added to a trypan blue (TB) solution (containing 775 μL InvitroGRO KHB and 200 μL of Trypan Blue). Cell count was taken using a hemacytometer.
For mouse hepatocytes, 200 μL of hepatocytes (0.8×10^6 cells/mL) were added to the wells of a 48 well plate (Catalog No. 92048, TPP Techno Plastic Products AG, Trasadingen, Switzerland) and pre-incubated for 30 minutes at 37° C. For rat, dog, monkey, […], 200 μL of hepatocytes (2×10^6 cells/mL) were added to the wells of a 48 well plate (Catalog No. 92048, TPP Techno Plastic Products AG, Trasadingen, Switzerland) and pre-incubated for 30 minutes at 37° C.
For all species of hepatocytes, once the pre-incubation period was complete, 200 μL of 2 μM working stock of test compound was added to the wells of the plate, and the plate was vortexed on a Vibramax™ 100 (P/N 544-21200-00, Heidolph Instruments GmbH & Co. KG, Schwabach, Germany) at 500 rpm in a 37° C. CO2 incubator (Model No. 51026280, ThermoFisher Scientific, Waltham, MA, USA). At each time point of 0, 15, 30, 60, 90, and 120 minutes, 50 μL of incubation mixture was precipitated with 200 μL of acetonitrile containing internal standard.
At the end of the experiment, the samples were centrifuged at 4000 rpm for 10 minutes. The supernatant was collected and diluted with an equal amount of water, and vortexed for 5 minutes at 900 rpm in MixMate® (Model No. 5353, Eppendorf SE, Hamburg, Germany).
The supernatant samples were submitted for LC-MS/MS analysis.
Calculations of the results included the following: […]

The text below walks through data of US20240245677A1, “SELECTED COMPOUNDS FOR TARGETED DEGRADATION OF BRD9” (C4 THERAPEUTICS, INC., priority 2021, published 2024).

Each structure is given as a SMILES string.

One may read the half-life as how long it takes for the measured level to halve.

For the compound `COc1cc(-c2cn(C)c(=O)c(C)c2C)cc(OC)c1CN1CC[C@H](N2CCN(c3ccc(N[C@H]4CCC(=O)NC4=O)cc3F)CC2)C(F)(F)C1` [Form A], the water uptake result in data set [1] (from 40% RH to 70% RH) is “about 2.0%”. Also, in data set [2], the “behavior under ball milling” value is “no obvious crystallinity decrease”; the behavior under compression result was “no form change and no obvious crystallinity decrease even under 10 MPa”. Further, in data set [3], the “physical and chemical stability” value is “physically and chemically stable”.
On to `COc1cc(-c2cn(C)c(=O)c(C)c2C)cc(OC)c1CN1CC[C@H](N2CCN(c3ccc(N[C@H]4CCC(=O)NC4=O)cc3F)CC2)C(F)(F)C1` [Form N], for which, in data set [1] (from 40% RH to 80% RH), the water uptake result is on record as “about 1.0%”. For the same compound, the “behavior under ball milling” value in data set [2] was “no obvious crystallinity decrease”. For the same compound, the behavior under compression result in data set [2] was “crystallinity decrease even compressed under 2 MPa”. In addition, the XRPD entry in data set [4] (0% RH) is “Pattern N”; in data set [4] (20% RH) it was “Pattern N”; in data set [4] (40% RH (after 90% RH, falling)) it was “Pattern N”; in data set [4] (40% RH (first step)), “Pattern N”; in data set [4] (40% RH (last step, after 0% RH)), “Pattern N”; in data set [4] (70% RH (after 90% RH)), “Pattern N”. Moreover, the XRPD entry in data set [4] (70% RH (humidity rising)) and in data set [4] (90% RH) was “Pattern N” each time. In addition, in data set [3], the “physical and chemical stability” value was “physically and chemically stable”. For the same compound, in data set [3] (50° C. under vacuum for 2 days), the “form change and degradation after drying” value is “No form change and no degradation”.
For the compound `COc1cc(-c2cn(C)c(=O)c(C)c2C)cc(OC)c1CN1CC[C@H](N2CCN(c3ccc(N[C@H]4CCC(=O)NC4=O)cc3F)CC2)C(F)(F)C1` [Pattern G and Pattern H], the “XRPD after competitive equilibration at 25° C.” value in data set [5] (Acetone) is “Pattern B”; in data set [5] (Ethanol) it was “Low crystallinity, difficult to differentiate”; in data set [5] (Ethyl acetate), “Pattern F”; in data set [5] (Toluene) it was “Pattern G”.
In data set [6], `CC(C)NCC(O)COc1cccc2ccccc12` (stereo not shown) [Propranolol, reference compound] yielded a half-life at 1 µM of 16.3 min.
